Measured values reported in PubChem BioAssay AID200 (DTP/NCI, 2004).
Where “and” joins values, the source holds several entries; their conditions need not be identical. Identical values can stand only once. Toxic doses and inconclusive results are not listed.

Test system: B6C3F1 mice, B16 melanoma ip, median survival T/C
Test: NCI In Vivo Anticancer Drug Screen. Data for tumor model B16 Melanoma (intraperitoneal) in B6C3F1 mice
Conditions: endpoint: median survival time, schedule: Q01DX009 (ip), higher = longer survival
In short: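 Tumor-bearing mice received test compound; a separate group got vehicle only. Survival was then compared, with results reported as treated over control.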

[1] = dose: 50.0 mg/kg/injection, vehicle: saline
[2] = dose: 100.0 mg/kg/injection, vehicle: saline
[3] = dose: 6.25 mg/kg/injection, vehicle: Klucel (hydroxypropylcellulose) (HPC)
[4] = dose: 12.5 mg/kg/injection, vehicle: Klucel (hydroxypropylcellulose) (HPC)
[5] = dose: 25.0 mg/kg/injection, vehicle: Klucel (hydroxypropylcellulose) (HPC)
[6] = dose: 50.0 mg/kg/injection, vehicle: Klucel (hydroxypropylcellulose) (HPC)
[7] = dose: 100.0 mg/kg/injection, vehicle: Klucel (hydroxypropylcellulose) (HPC)
[8] = dose: 200.0 mg/kg/injection, vehicle: Klucel (hydroxypropylcellulose) (HPC)
[9] = dose: 0.5 mg/kg/injection, vehicle: Klucel (hydroxypropylcellulose) (HPC)
[10] = dose: 3.12 mg/kg/injection, vehicle: Klucel (hydroxypropylcellulose) (HPC)
[11] = dose: 1.56 mg/kg/injection, vehicle: saline
[12] = dose: 3.12 mg/kg/injection, vehicle: saline
[13] = dose: 6.25 mg/kg/injection, vehicle: saline
[14] = dose: 12.5 mg/kg/injection, vehicle: saline
[15] = dose: 25.0 mg/kg/injection, vehicle: saline

C=C1[C@@H](O)[C@]2(O)OC[C@@]34[C@H]1[C@@H](OC(=O)C(C)CC)C(=O)O[C@@H]3C[C@H]1C(C)=CC(=O)[C@@H](O)[C@]1(C)[C@@H]24 (stereo not given in full)
T/C (dose: 1.0 mg/kg/injection, vehicle: saline with Tween-80): 175 % of control | T/C (dose: 2.0 mg/kg/injection, vehicle: saline with Tween-80): 165 % of control | T/C (dose: 4.0 mg/kg/injection, vehicle: saline with Tween-80): 175 % of control | T/C (dose: 8.0 mg/kg/injection, vehicle: saline with Tween-80): 165 % of control | T/C (dose: 16.0 mg/kg/injection, vehicle: saline with Tween-80): 180 % of control

c1ccc2c3c(ccc2c1)Sc1ccc2ccccc2c1N3
T/C [1]: 112 % of control | T/C [2]: 112 % of control | T/C (dose: 200.0 mg/kg/injection, vehicle: saline): 112 % of control | T/C (dose: 400.0 mg/kg/injection, vehicle: saline): 123 % of control

COc1cc2cc(c1Cl)N1CC(O)C(C)(O)C(=O)NC(C)C(=O)OC(CC1=O)C1(C)OC1C(C)C1CC(O)(NC(=O)O1)C(OC)/C=C\C=C(\C)C2OC (stereo not given)
T/C (dose: 2.0 micrograms/kg/injection, vehicle: distilled water + alcohol): 164 % of control and 165 % of control | T/C (dose: 4.0 micrograms/kg/injection, vehicle: distilled water + alcohol): 170 % of control and 185 % of control | T/C (dose: 8.0 micrograms/kg/injection, vehicle: distilled water + alcohol): 176 % of control and 195 % of control and 196 % of control | T/C (dose: 16.0 micrograms/kg/injection, vehicle: distilled water + alcohol): 183 % of control and 197 % of control and 212 % of control

CC[C@@]1(O)C(=O)OCc2c1cc1n(c2=O)Cc2cc3cc(O)ccc3nc2-1
T/C (dose: 0.37 mg/kg/injection, vehicle: suspension in saline): 155 % of control | T/C (dose: 0.38 mg/kg/injection, vehicle: other): 160 % of control | T/C (dose: 0.75 mg/kg/injection, vehicle: other): 191 % of control | T/C (dose: 0.75 mg/kg/injection, vehicle: suspension in saline): 183 % of control | T/C (dose: 1.5 mg/kg/injection, vehicle: other): 197 % of control | T/C (dose: 1.5 mg/kg/injection, vehicle: suspension in saline): 201 % of control | T/C (dose: 3.0 mg/kg/injection, vehicle: suspension in saline): 201 % of control

CC(C)n1cnc2c(Cl)ncnc21
T/C (dose: 25.0 mg/kg/injection, vehicle: saline with Tween-80): 88 % of control | T/C (dose: 50.0 mg/kg/injection, vehicle: saline with Tween-80): 104 % of control | T/C (dose: 100.0 mg/kg/injection, vehicle: saline with Tween-80): 87 % of control

O=C(O)c1cc(Cc2ccc(O)c(C(=O)O)c2)ccc1O (tested in a mixture with another compound)
T/C [3]: 101 % of control | T/C [4]: 105 % of control | T/C [5]: 103 % of control | T/C [6]: 94 % of control | T/C [7]: 90 % of control | T/C [8]: 93 % of control

C[n+]1c(/C=C\C=C\N2CCCCC2)sc2ccccc21
T/C (dose: 0.12 mg/kg/injection, vehicle: Klucel (hydroxypropylcellulose) (HPC)): 107 % of control | T/C (dose: 0.25 mg/kg/injection, vehicle: Klucel (hydroxypropylcellulose) (HPC)): 95 % of control | T/C [9]: 90 % of control | T/C (dose: 1.0 mg/kg/injection, vehicle: Klucel (hydroxypropylcellulose) (HPC)): 95 % of control | T/C (dose: 2.0 mg/kg/injection, vehicle: Klucel (hydroxypropylcellulose) (HPC)): 110 % of control

CCCCC(NC(=O)CNC(=O)OCc1ccccc1)C(=O)O (stereo not given)
T/C [7]: 92 % of control | T/C [8]: 96 % of control | T/C (dose: 400.0 mg/kg/injection, vehicle: Klucel (hydroxypropylcellulose) (HPC)): 92 % of control

O=C1CN(CO)C(=O)N1CO
T/C [5]: 93 % of control | T/C [6]: 97 % of control | T/C [7]: 110 % of control | T/C [8]: 103 % of control

CN1CCc2c(c3ccccc3c3ccccc23)C1
T/C [10]: 116 % of control and 94 % of control | T/C [3]: 87 % of control and 99 % of control | T/C [4]: 88 % of control and 102 % of control and 106 % of control | T/C [5]: 90 % of control and 102 % of control | T/C [6]: 116 % of control and 97 % of control and 102 % of control | T/C [7]: 118 % of control and 92 % of control

CC(NC(=O)OCc1ccccc1)C(=O)NC(C(=O)O)C(C)O (stereo not given)
T/C [7]: 98 % of control | T/C [8]: 106 % of control

COC(=O)C12OCC34C(CC5C(C)C6=CC(=O)OC6=CC5(C)C3C(O)C1O)OC(=O)C(O)C24 (stereo not given)
T/C [9]: 154 % of control | T/C (dose: 180.0 micrograms/kg/injection, vehicle: Klucel (hydroxypropylcellulose) (HPC)): 116 % of control | T/C (dose: 833.3 micrograms/kg/injection, vehicle: Klucel (hydroxypropylcellulose) (HPC)): 153 % of control | T/C (dose: 1388.8 micrograms/kg/injection, vehicle: Klucel (hydroxypropylcellulose) (HPC)): 178 % of control

COc1ccc(OC)c(/C=C/c2ccnc3ccccc23)c1
T/C (dose: 50.0 mg/kg/injection, vehicle: saline sonified): 95 % of control | T/C (dose: 100.0 mg/kg/injection, vehicle: saline sonified): 107 % of control | T/C (dose: 200.0 mg/kg/injection, vehicle: saline sonified): 117 % of control

FC(F)(F)c1ccc2c(c1)N(CCCN1CCN(CCN3CCCCC3)CC1)c1ccccc1S2
T/C (dose: 0.78 mg/kg/injection, vehicle: saline): 94 % of control | T/C [11]: 109 % of control and 89 % of control | T/C [12]: 118 % of control and 99 % of control | T/C [13]: 99 % of control and 101 % of control | T/C [14]: 98 % of control | T/C [15]: 94 % of control

O=C(O)C1CSCN1 (stereo not given)
T/C (dose: 0.39 mg/kg/injection, vehicle: Klucel (hydroxypropylcellulose) (HPC)): 95 % of control | T/C (dose: 0.78 mg/kg/injection, vehicle: Klucel (hydroxypropylcellulose) (HPC)): 99 % of control | T/C (dose: 1.56 mg/kg/injection, vehicle: Klucel (hydroxypropylcellulose) (HPC)): 97 % of control | T/C [11]: 96 % of control | T/C [10]: 86 % of control | T/C [12]: 86 % of control | T/C [3]: 93 % of control | T/C [13]: 90 % of control and 107 % of control | T/C [4]: 87 % of control | T/C [14]: 116 % of control and 98 % of control and 102 % of control | T/C [15]: 117 % of control and 104 % of control | T/C [1]: 110 % of control and 121 % of control | T/C [2]: 112 % of control and 101 % of control
